Patent publication US4361573A, “α,α-Diaryl-β-(tert-amino)-propanols and diuretic pharmaceutical compositions containing them” (Temmler AG, priority 1974, dated 1982)
Read-outs that look alike come from different tables or passages of the source.

What was measured:
[1] = comparison of toxicity in mice: oral LD50 by the Lichtfiel & Wilcoxon method; type: in vivo; conditions: observation period 7 days, 95% confidence limit in brackets
Text: In Table 3 the mean lethal doses for mice, administered orally (LD50 determination by the […] & WILCOXON method - J.Pharmacol. Exp. Ther. 96,98 (1949)) are compared.

[2] = saluretic efficiency test in rats: elimination of water, sodium, chloride and potassium in 6 h urine after oral dosing; type: in vivo; conditions: for Quotient Na/K / Mean percentage variation in the elimination of Chloride / Mean percentage variation in the elimination of H2O / Mean percentage variation in the elimination of Sodium / Mean percentage variation in the elimination of potassium / change in vivo at 40 µmol/kg / change in vivo at 80 µmol/kg: rats, oral; for change in vivo at 40 µmol/kg / change in vivo at 80 µmol/kg: Rattus norvegicus
Description: In order to test the saluretic efficiency of the compounds of the invention rats having a weight of 150 to 200 g were used. The animals were kept without food, but not without drinking water, for 15 hours before the beginning of the test. The test substances were administered to groups of four rats, of substantially equal weight, with a rigid stomach probe in a 1% methyl cellulose slime. The dose required per 100 g animal (unit dosage in μmol/kg body weight) was contained in one ml. Following the administration of the substance the rats were given 5 ml 0.9% sodium chloride solution per 100 g body weight p.o. and placed in a diuresis funnel after manually emptying the bladder. Urine was collected for 6 hours in an airconditioned chamber at 24°±1° C. and a relative air humidity of 50±5%. The diuretic effect of a particular dose was tested on at least two, but more frequently however on four to eight groups of rats. Two sodium chloride controls were also used for each test day.
At the end of the collecting periods the volumes of urine discharged per group were noted and the pH value and also the content of sodium, potassium (flame-photometrically) and chloride (measured argentometrically with the determination of the end point potentiometrically) were determined.
From the analysis results the quantities of Na^+, K^+ and Cl^- eliminated were calculated in […] body weight, and the values thus obtained compared with those of the control animals.
Means values and twice the standard deviation were calculated from the data for the sodium chloride controls, in order to determine the normal range. Then, for the values found with the test substances, the percentage variations from the average in respect of these parameters were calculated and tabulated. In this connection, with the results given in Table 1, the upper limit of the normal range, which is defined as the mean value plus twice the standard deviation, was selected as the reference quantity for the variations. In this way relevant hyper-eliminations could clearly be recognised.
In Table 2, the mean percentage variations in potassium elimination after administration of the compounds in accordance with the invention are compared with the mean value of the potassium elimination in the case of the sodium chloride controls. At the same time the […] ratio is given which provides conclusive evidence of the effective saluretic property. The larger this quotient is, then the more sodium than potassium is eliminated in proportion.

[3] = 40 μmol/kg body wt., deviation from control mean plus twice the standard deviation, 6 h urine
[4] = 80 μmol/kg body wt., deviation from control mean plus twice the standard deviation, 6 h urine
[5] = 6 h, 40 μmol/kg body wt., relative to mean K+ elimination of the controls, read-out: Mean percentage variation in the elimination of potassium
[6] = 6 h, 80 μmol/kg body wt., relative to mean K+ elimination of the controls, read-out: Mean percentage variation in the elimination of potassium
[7] = 40 μmol/kg body wt., deviation from control mean plus twice the standard deviation, 6 h urine, read-out: Mean percentage variation in the elimination of Chloride
[8] = 40 μmol/kg body wt., deviation from control mean plus twice the standard deviation, 6 h urine, read-out: Mean percentage variation in the elimination of H2O
[9] = 40 μmol/kg body wt., deviation from control mean plus twice the standard deviation, 6 h urine, read-out: Mean percentage variation in the elimination of Sodium
[10] = 80 μmol/kg body wt., deviation from control mean plus twice the standard deviation, 6 h urine, read-out: Mean percentage variation in the elimination of Chloride
[11] = 80 μmol/kg body wt., deviation from control mean plus twice the standard deviation, 6 h urine, read-out: Mean percentage variation in the elimination of H2O
[12] = 80 μmol/kg body wt., deviation from control mean plus twice the standard deviation, 6 h urine, read-out: Mean percentage variation in the elimination of Sodium
[13] = dose of 10 mol/kg body weight, average

Compound | Quotient Na/K ([2]; 40 μmol/kg body wt.) | Quotient Na/K ([2]; 80 μmol/kg body wt.) | change in vivo at 40 µmol/kg [2, 5] [%] | change in vivo at 80 µmol/kg [2, 6] [%] | change in vivo at 40 µmol/kg [2, 7] [%] | change in vivo at 40 µmol/kg [2, 8] [%] | change in vivo at 40 µmol/kg [2, 9] [%] | change in vivo at 80 µmol/kg [2, 10] [%] | change in vivo at 80 µmol/kg [2, 11] [%] | change in vivo at 80 µmol/kg [2, 12] [%] | LD50 ([1]; mouse, in vivo, read-out: LD50) [mg/kg] | further results
1-(2'-methoxy-3'-methyl-5'-tertiary-butylphenyl)-1-(2"-methoxy-4"-hydroxyphenyl- (or 2"-hydroxy-4"-methoxyphenyl)-2-piperidino-propan-1-ol [T 2458] | 5.60 | 8.06 | – | – | – | – | – | – | – | – | – | LD50 [1]: 3200 mg/kg; Mean percentage variation in the elimination of Chloride [2, 3]: 16.9%; Mean percentage variation in the elimination of H2O [2, 3]: 30.9%; Mean percentage variation in the elimination of Sodium [2, 3]: 40.4%; Mean percentage variation in the elimination of potassium ([2]; 40 μmol/kg body wt., relative to mean K+ elimination of the controls): 49.0%; Mean percentage variation in the elimination of Chloride [2, 4]: 59.0%; Mean percentage variation in the elimination of H2O [2, 4]: 83.8%; Mean percentage variation in the elimination of Sodium [2, 4]: 84.2%; Mean percentage variation in the elimination of potassium ([2]; 80 μmol/kg body wt., relative to mean K+ elimination of the controls): 37.7%
Nc1nc(N)c2nc(-c3ccccc3)c(N)nc2n1 [2.4.7-triamino-6-phenyl-pteridine, reference compound] | 10.16 | 13.20 | -43.9 | -55.1 | -11.7 | -1 | -4 | -11.7 | -2 | -0.2 | – | –
NS(=O)(=O)c1cc2c(cc1Cl)NCNS2(=O)=O [6-chloro-3.4.-dihydro-7-sulphamoyl-2H-1.2.4.-benzothiadiazine-1.1.-dioxide, reference compound] | – | – | – | – | – | – | – | – | – | – | – | maximum hyper-elimination, chloride ([2]; dose of 10 μmol/kg body weight, average): 17.3%; maximum hyper-elimination, sodium [2, 13]: 29.6%; maximum hyper-elimination, water [2, 13]: 19.9%; Na/K ratio of the quantities eliminated ([2]; maximum effective dose, 10 μmol/kg body wt.): 4.86; hyper-elimination of potassium ([2]; maximum effective dose, 10 mol/kg body wt.): 58.3%
COc1cc(C)c(C(O)(c2ccccc2)C(C)N2CCCCC2)cc1C(C)C (stereo not drawn) [T 1523, 1-(4'-methoxy-2'-methyl-5'-isopropylphenyl)-1-phenyl-2-piperidino-propan-1-ol] | 5.35 | 6.72 | 25.5 | 13.3 | -5.1 | 28.9 | 13.1 | 14.2 | 39.6 | 28.2 | > 3200 | –
COc1cc(C)c(C(O)(c2ccccc2)C(C)N2CCCC2)cc1C(C)(C)C (stereo not drawn) [T 1856, 1-(4'-methoxy-2'-methyl-5'-tert-butylphenyl)-1-phenyl-2-pyrrolidino-propan-1-ol] | 6.18 | 7.16 | 25.5 | 22.4 | 19.4 | 41 | 30.6 | 32.5 | 59.7 | 47.6 | 2200 | –
COc1c(C)cc(C(C)(C)C)cc1C(O)(c1ccccc1)C(C)N1CCCCC1 (stereo not drawn) [T 1857, 1-(2'-methoxy-3'-methyl-5'-tert-butylphenyl)-1-phenyl-2-piperidino-propan-1-ol] | 7.04 | 7.09 | 30.6 | 29.6 | 32.9 | 52 | 54.8 | 36 | 56.5 | 54.6 | 3820 | –
COc1ccc(C(O)(c2cc(C(C)C)c(OC)c(C(C)C)c2)C(C)N2CCCCC2)cc1OC (stereo not drawn) [T 1882, 1-(4'-methoxy-3',5'-diisopropylphenyl)-1-(3",4"-dimethoxyphenyl)-2-piperidino-propan-1-ol] | 6.52 | 7.41 | 13.3 | -12.2 | 6.3 | 17.7 | 24.4 | -4.4 | 7.5 | 9.5 | 3400 | –
CCCC(C)(C)c1cc(C)c(OC)c(C(O)(c2ccccc2)C(C)N2CCCC2)c1 (stereo not drawn) [T 2111, 1-(2'-methoxy-3'-methyl-5'-tertiary-hexylphenyl)-1-phenyl-2-pyrrolidino-propan-1-ol] | 6.64 | 8.77 | 19.4 | -7.1 | 9.5 | 36.8 | 33.5 | 23.4 | 33.8 | 37.1 | 4450 | –
Cc1c(C(O)(c2ccccc2)C(C)N2CCCCC2)cc2c(c1C)OCCC2 (stereo not drawn) [T 2129, 1-(7',8'-dimethylchromanyl-(6'))-1-phenyl-2-piperidino-propan-1-ol] | 7.02 | 5.23 | 12.3 | 35.7 | 12.4 | 23.9 | 32.6 | 22 | 21.3 | 19.4 | > 3200 | –
COc1c(C)c(C)c(C(O)(c2ccccc2)C(C)N2CCCCC2)c(C)c1C (stereo not drawn) [T 2152, 1-(4'-methoxy-2',3',5',6'-tetramethylphenyl)-1-phenyl-2-piperidino-propane-1-ol] | 6.67 | 6.55 | 9.2 | 9.2 | 11.6 | 22.9 | 22.7 | 5.6 | 22.6 | 20.4 | – | –
COc1ccc(C(O)(c2cc(C(C)C)c(OC)c(C(C)C)c2)C(C)N2CCCCC2)cc1 (stereo not drawn) [T 2237, 1-(4'-methoxy-3',5'-diisopropylphenyl)-1-(4"-methoxyphenyl)-2-piperidino-propan-1-ol] | 6.93 | 7.95 | 13.3 | 19.4 | 24.3 | 40.8 | 32.1 | 57.1 | 67.9 | 59.8 | > 6400 | –
CCOc1ccc(C(O)(c2cc(C(C)C)c(OC)c(C(C)C)c2)C(C)N2CCCCC2)cc1 (stereo not drawn) [T 2258, 1-(4'-methoxy-3',5'-diisopropylphenyl)-1-(4"-ethoxyphenyl)-2-piperidino-propan-1-ol] | 6.11 | 7.32 | 19.4 | 1 | 12.8 | 28.1 | 22.9 | 17.3 | 32.3 | 24.6 | > 4500 | –
COc1ccc(C(C)(C)C)cc1C(O)(c1ccccc1)C(C)N1CCCCC1 (stereo not drawn) [T 2259, 1-(2'-methoxy-5'-tertiary-butylphenyl)-1-phenyl-2-piperidino-propan-1-ol] | 6.40 | 6.84 | 19.4 | 38.8 | 94 | 46.5 | 28.7 | 110 | 76.6 | 59.8 | 560 | –
